In patent US20140377350A1, “BILAYER TABLET FORMULATIONS OF FLURBIPROFEN AND GLUCOSAMIN” (Sanovel Ilac Sanayi Ve Ticaret Anonim Sirketi, priority 2012, published 2014):

Tests used:
[1] = cited from earlier work
[2] = in-vitro release (dissolution) of the actives from the bilayer tablet, USP paddle method; assay type: physicochemical; conditions: 900 ml phosphate buffer pH 7.2, 37° C., 50 RPM
Procedure: Therefore, the release profiles of the actives are as follows; the maximum 40% of total amount of flurbiprofen is released in 2 hours and 50-80% in 6 hours and at least 75% in 8 hours in 900 ml of phosphate buffer at pH 7.2 at 37° C. using USP paddle method rotating at 50 RPM. Glucosamine is released immediately and minimum 75% of the total amount is dissolved in 60 min.

For `CC(C(=O)O)c1ccc(-c2ccccc2)c(F)c1` (stereo not drawn) [flurbiprofen, Flurbiprofen], the solubility in water [1] is listed as “practically insoluble”, the “total amount of flurbiprofen released” value ([2]; in 2 hours) is listed as ≤ 40% and the “total amount of flurbiprofen released” value ([2]; in 6 hours) is listed as 50-80%.
